# Experimental data published in the supplement of paper PMC12076712.
# Assays:
# Test in all cases: pIC50, kinobeads binding competition
# UniProt P51955 = target: T1, UniProt P51955
# T1 sequence (whole entry): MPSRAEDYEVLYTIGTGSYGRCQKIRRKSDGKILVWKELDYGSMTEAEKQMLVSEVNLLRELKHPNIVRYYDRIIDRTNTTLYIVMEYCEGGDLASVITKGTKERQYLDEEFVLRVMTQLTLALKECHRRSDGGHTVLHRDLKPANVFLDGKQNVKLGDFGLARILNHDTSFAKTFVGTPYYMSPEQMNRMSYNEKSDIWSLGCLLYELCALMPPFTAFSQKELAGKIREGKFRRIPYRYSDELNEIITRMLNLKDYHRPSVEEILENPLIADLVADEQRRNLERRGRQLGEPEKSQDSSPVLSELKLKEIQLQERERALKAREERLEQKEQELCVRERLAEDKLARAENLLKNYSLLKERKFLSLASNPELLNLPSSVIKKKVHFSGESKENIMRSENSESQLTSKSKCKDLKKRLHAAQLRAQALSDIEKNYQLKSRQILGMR
# How it was run: (§1)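 Either living Jurkat cells (60 min at 37 °C, then lysis) or lysates (60 min at 4 °C) were treated with nine compound concentrations from a top of 30 μM, in 1:4 steps for cells and 1:5 steps for lysates. The lysates were from Jurkat cells or a 1:1:1:1 mix of HEK293, K-562, HepG2 and placenta. Kinobeads-bound proteins were digested and quantified by TMT10 LC-MS/MS. pIC50 was calculated by logistic dose-response fitting (R drc package) of fold changes relative to vehicle, in biological duplicates.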
# UniProt Q9Y5S2 = details: cell material: Lysate mix
# UniProt Q9Y5S2, sequence (Q9Y5S2 whole entry): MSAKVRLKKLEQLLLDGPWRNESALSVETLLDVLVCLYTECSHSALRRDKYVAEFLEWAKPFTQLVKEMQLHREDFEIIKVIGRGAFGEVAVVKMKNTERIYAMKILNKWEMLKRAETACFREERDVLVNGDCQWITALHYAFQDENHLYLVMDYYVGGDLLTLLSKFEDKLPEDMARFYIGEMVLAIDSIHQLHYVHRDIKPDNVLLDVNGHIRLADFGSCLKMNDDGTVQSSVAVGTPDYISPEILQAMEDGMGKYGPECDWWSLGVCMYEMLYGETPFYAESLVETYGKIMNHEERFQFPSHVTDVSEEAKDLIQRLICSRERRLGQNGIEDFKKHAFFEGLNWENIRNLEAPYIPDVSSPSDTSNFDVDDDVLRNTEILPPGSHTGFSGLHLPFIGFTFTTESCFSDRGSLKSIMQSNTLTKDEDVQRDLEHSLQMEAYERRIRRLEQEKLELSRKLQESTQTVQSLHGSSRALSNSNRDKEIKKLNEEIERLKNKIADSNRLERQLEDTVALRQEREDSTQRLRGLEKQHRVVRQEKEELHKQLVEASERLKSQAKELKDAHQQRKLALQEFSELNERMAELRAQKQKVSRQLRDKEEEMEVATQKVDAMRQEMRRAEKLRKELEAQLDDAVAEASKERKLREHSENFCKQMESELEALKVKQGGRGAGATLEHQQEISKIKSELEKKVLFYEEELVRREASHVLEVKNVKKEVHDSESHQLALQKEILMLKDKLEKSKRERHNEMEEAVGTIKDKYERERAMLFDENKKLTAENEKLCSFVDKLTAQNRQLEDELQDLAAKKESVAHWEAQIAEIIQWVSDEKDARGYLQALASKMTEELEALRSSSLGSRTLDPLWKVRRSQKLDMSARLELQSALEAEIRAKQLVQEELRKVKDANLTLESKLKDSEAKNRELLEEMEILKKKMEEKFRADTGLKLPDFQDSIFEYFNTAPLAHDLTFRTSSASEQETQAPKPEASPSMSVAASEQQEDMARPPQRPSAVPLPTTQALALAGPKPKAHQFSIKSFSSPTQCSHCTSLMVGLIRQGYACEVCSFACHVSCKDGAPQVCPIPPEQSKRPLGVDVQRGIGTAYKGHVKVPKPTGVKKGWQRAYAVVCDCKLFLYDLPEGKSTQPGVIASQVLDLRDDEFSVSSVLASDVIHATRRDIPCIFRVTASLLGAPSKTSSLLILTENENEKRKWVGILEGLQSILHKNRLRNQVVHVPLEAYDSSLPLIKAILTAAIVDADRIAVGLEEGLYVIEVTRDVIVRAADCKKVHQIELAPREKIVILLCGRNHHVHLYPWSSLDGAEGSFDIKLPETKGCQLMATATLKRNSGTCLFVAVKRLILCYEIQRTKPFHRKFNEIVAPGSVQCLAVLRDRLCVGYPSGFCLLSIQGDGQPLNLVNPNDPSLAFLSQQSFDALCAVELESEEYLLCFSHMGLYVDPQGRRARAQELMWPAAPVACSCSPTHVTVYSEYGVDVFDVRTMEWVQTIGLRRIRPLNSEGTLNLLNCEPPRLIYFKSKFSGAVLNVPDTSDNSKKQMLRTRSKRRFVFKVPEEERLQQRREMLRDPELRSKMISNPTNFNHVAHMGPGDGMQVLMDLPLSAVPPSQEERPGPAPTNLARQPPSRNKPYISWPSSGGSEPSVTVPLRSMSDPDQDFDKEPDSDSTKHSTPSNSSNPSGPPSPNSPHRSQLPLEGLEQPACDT
# How it was run: as §1
# UniProt Q13131 = target: UniProt Q13131
# UniProt Q13131, sequence (Q13131 whole entry, looked up): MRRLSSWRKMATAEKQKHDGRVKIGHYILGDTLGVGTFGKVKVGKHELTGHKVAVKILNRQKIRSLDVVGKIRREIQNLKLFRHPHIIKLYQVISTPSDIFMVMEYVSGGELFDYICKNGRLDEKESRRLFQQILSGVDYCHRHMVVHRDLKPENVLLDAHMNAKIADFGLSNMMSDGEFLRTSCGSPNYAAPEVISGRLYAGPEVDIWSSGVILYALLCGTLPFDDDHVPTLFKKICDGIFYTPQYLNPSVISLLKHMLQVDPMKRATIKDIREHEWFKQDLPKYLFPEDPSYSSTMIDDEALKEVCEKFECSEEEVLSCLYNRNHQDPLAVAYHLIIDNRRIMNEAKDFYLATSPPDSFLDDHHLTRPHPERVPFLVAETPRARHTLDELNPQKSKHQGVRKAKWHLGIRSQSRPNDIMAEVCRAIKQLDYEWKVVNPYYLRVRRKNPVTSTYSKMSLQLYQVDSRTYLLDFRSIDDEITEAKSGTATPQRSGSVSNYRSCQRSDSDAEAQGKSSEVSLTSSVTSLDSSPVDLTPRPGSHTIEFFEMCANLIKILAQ
# How it was run: as §1
# MARK4 = target: T2, MARK4 (UniProt Q96L34)
# T2 sequence (whole entry): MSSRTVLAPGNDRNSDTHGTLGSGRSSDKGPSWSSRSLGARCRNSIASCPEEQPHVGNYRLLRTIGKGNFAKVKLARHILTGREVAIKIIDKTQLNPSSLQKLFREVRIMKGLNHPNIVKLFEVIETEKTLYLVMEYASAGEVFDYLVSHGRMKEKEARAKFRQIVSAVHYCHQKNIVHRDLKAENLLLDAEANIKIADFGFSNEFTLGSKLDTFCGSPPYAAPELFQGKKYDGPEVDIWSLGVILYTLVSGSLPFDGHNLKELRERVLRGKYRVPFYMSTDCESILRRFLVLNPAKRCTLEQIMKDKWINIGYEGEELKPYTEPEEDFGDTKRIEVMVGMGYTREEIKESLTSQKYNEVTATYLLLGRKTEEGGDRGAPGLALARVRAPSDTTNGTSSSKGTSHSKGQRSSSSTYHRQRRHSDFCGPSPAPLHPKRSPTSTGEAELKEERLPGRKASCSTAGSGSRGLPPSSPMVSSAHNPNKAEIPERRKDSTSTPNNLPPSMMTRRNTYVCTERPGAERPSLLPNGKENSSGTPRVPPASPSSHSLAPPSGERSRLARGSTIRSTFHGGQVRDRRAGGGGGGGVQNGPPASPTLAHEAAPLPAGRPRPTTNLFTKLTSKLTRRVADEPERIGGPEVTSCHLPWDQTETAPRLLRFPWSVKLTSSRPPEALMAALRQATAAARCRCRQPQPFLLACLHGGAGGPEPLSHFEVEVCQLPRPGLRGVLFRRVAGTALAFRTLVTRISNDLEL
# How it was run: as §1
# JAK3 = target: T3, JAK3 (UniProt P52333)
# T3 sequence (whole entry): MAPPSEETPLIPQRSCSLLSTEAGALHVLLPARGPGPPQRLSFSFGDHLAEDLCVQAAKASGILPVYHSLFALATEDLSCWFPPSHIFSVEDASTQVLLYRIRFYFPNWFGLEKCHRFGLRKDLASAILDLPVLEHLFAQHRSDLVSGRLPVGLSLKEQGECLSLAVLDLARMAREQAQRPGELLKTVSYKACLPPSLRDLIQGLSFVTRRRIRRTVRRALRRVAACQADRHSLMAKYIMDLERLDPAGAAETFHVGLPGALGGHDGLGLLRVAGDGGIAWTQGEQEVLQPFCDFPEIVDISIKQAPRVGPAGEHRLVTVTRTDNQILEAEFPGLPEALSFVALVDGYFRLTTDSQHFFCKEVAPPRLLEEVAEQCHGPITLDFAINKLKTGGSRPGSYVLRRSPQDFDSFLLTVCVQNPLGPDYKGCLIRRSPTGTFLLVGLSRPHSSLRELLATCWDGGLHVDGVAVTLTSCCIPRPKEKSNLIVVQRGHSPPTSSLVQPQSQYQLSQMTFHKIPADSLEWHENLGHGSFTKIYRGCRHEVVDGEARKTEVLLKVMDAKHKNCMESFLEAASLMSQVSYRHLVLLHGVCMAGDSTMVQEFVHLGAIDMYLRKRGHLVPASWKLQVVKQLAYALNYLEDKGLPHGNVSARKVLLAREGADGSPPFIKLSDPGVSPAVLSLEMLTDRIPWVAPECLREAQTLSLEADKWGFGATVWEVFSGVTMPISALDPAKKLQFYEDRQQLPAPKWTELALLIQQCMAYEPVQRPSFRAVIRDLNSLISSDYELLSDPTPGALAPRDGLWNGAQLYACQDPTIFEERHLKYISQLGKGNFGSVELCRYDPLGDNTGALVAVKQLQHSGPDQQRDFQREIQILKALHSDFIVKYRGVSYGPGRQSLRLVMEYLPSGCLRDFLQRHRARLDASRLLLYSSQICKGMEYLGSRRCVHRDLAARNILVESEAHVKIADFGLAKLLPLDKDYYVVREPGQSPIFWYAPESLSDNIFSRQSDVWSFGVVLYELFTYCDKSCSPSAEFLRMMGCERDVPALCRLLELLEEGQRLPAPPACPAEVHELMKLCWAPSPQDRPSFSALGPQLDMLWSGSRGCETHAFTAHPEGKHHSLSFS
# How it was run: as §1
Structure (SMILES),pIC50 (UniProt P51955; cell material: Lysate mix),pIC50 (UniProt Q9Y5S2),pIC50 (UniProt Q13131; cell material: Lysate mix),pIC50 (MARK4; cell material: Lysate mix),pIC50 (JAK3; cell material: Lysate mix),pIC50 (UniProt P51955; cell material: Jurkat cells),pIC50 (UniProt P51955; cell material: Jurkat lysate),pIC50 (UniProt Q13131; cell material: Jurkat cells),pIC50 (UniProt Q13131; cell material: Jurkat lysate),pIC50 (MARK4; cell material: Jurkat cells),pIC50 (MARK4; cell material: Jurkat lysate),pIC50 (JAK3; cell material: Jurkat cells),pIC50 (JAK3; cell material: Jurkat lysate)
C#CCNC(=O)c1cc(Nc2cc(C)[nH]n2)nc(N2CCN(Cc3ccc(S(=O)(=O)F)cc3)CC2)n1,4.81,< 4.52,6.3,< 4.52,5.7,,,,,,,,
C#CCNC(=O)c1cc(Nc2cc(C3CC3)[nH]n2)nc(N2CCN(Cc3ccc(S(=O)(=O)F)cc3)CC2)n1,5.87,< 4.52,7.2,4.81,6.08,6.69,5.41,6.64,6.58,5.98,< 4.52,5.94,5.42
CCNC(=O)c1cc(Nc2cc(C3CC3)[nH]n2)nc(N2CCN(Cc3ccc(S(=O)(=O)F)cc3)CC2)n1,5.69,< 4.52,7.03,4.93,5.97,,,,,,,,

# Second part, led by results:
pIC50 (UniProt P51955; cell material: Lysate mix),pIC50 (UniProt Q9Y5S2),pIC50 (UniProt Q13131; cell material: Lysate mix),pIC50 (MARK4; cell material: Lysate mix),pIC50 (JAK3; cell material: Lysate mix),Structure (SMILES),pIC50 (UniProt P51955; cell material: Jurkat cells),pIC50 (UniProt P51955; cell material: Jurkat lysate),pIC50 (UniProt Q13131; cell material: Jurkat cells),pIC50 (UniProt Q13131; cell material: Jurkat lysate),pIC50 (MARK4; cell material: Jurkat cells),pIC50 (MARK4; cell material: Jurkat lysate),pIC50 (JAK3; cell material: Jurkat cells),pIC50 (JAK3; cell material: Jurkat lysate)
< 4.52,< 4.52,5.24,< 4.52,< 4.52,Cc1cc(Nc2cc(C(=O)NCCNC(=O)OC3CC/C=C/CCC3)nc(N3CCN(Cc4ccc(S(=O)(=O)F)cc4)CC3)n2)n[nH]1 (stereo unspecified),,,,,,,,
< 4.52,< 4.52,5.56,< 4.52,< 4.52,O=C(NCCNC(=O)c1cc(Nc2cc(C3CC3)[nH]n2)nc(N2CCN(Cc3ccc(S(=O)(=O)F)cc3)CC2)n1)OC1CC/C=C/CCC1 (stereo unspecified),6.24,< 4.52,6.8,5.32,5.44,< 4.52,5.39,< 4.52
4.67,< 4.52,6.97,< 4.52,5.89,CCNC(=O)c1cc(Nc2cc(C)[nH]n2)nc(N2CCN(Cc3ccc(S(=O)(=O)F)cc3)CC2)n1,,,,,,,,
